The results in this text go back to ChEMBL document CHEMBL1150590, “Cytotoxic and antifungal triterpene glycosides from the Patagonian sea cucumber Hemoiedema spectabilis” (J Nat Prod, 2002).

For data set [1], the system named is Cladosporium cucumerinum. Put plainly: Antifungal activity against Cladosporium cucumerinum at 1.5 to 50 ug/spot after 2 to 3 days by bioautographic assay. Format: functional.
The test system of data set [2] is Cladosporium cucumerinum. Nature of the data set: Growth inhibition of Cladosporium cucumerinum after 2 to 3 days by bioautographic assay. The data set is classed as functional, organism-based.
The next data set concerns Artemia salina. Put plainly: Toxicity against Artemia salina. The data set is classed as organism-based. The note with it: in vivo.

As for `C=C(C)CCC[C@]1(C)OC(=O)[C@]23CC=C4[C@@H](CC[C@H]5C(C)(C)[C@@H](O[C@@H]6OC[C@@H](OS(=O)(=O)[O-])[C@H](O)[C@H]6O[C@@H]6O[C@H](C)[C@@H](O[C@@H]7O[C@H](COS(=O)(=O)[O-])[C@@H](O)[C@H](O[C@@H]8O[C@H](CO)[C@@H](O)[C@H](OC)[C@H]8O)[C@H]7O)[C@H](O)[C@H]6O)CC[C@]45C)[C@]2(C)CC(=O)[C@@H]31.[Na+].[Na+]` [HEMOIEDEMOSIDE A], the “inhibition zone (IZ)” value in the data set on Cladosporium cucumerinum [1] came out at 8 mm. For the same compound, in the data set on Cladosporium cucumerinum [2], the Activity entry is “Dose-dependent effect”. In the data set on Artemia salina, this compound came in with an LC50 of 18.7 ppm.

`C=C(C)CCC[C@]1(C)OC(=O)[C@]23CC=C4[C@@H](CC[C@H]5C(C)(C)[C@@H](O[C@@H]6OC[C@@H](O)[C@H](O)[C@H]6O[C@@H]6O[C@H](C)[C@@H](O[C@@H]7O[C@H](CO)[C@@H](O)[C@H](O[C@@H]8O[C@H](CO)[C@@H](O)[C@H](OC)[C@H]8O)[C@H]7O)[C@H](O)[C@H]6O)CC[C@]45C)[C@]2(C)CC(=O)[C@@H]31` [DESULFATED HEMOIEDEMOSIDE A]: the Activity entry in the data set with Cladosporium cucumerinum [2] was “Dose-dependent effect”. Moreover, in the data set with Artemia salina, the LC50 was found to be 424.5 ppm.

Take `CO[C@@H]1[C@@H](O)[C@H](O[C@@H]2[C@@H](O)[C@H](O[C@H]3[C@H](O)[C@@H](O)[C@H](O[C@H]4[C@H](O[C@H]5CC[C@]6(C)[C@@H]7C[C@H](O)[C@]89C(=O)O[C@@](C)(CCCC(C)C)[C@@]8(O)CC[C@@]9(C)C7=CC[C@H]6C5(C)C)OC[C@@H](OS(=O)(=O)[O-])[C@@H]4O)O[C@@H]3C)O[C@H](COS(=O)(=O)[O-])[C@H]2O)O[C@H](CO)[C@H]1O.[Na+].[Na+]` [PATAGONICOSIDE A]: the “inhibition zone (IZ)” value in the data set on Cladosporium cucumerinum [1] is listed as 8 mm.
